From ChEMBL document CHEMBL1122450, “Biological effects of modified colchicines. 2. Evaluation of catecholic colchicines, colchifolines, colchicide, and novel N-acyl- and N-aroyldeacetylcolchicines” (J Med Chem, 1983)
Activity calls are given as the source filed them.

Assays:
Mus musculus [1] = organism: Mus musculus; test: Toxicity in the P388 NCI screen defined as the dose that caused an average wt. loss>3g in at least one out of set of mice or the death of one or more of mice; type: organism-based; conditions: in vivo
Mus musculus [2] = organism: Mus musculus; test: Toxicity in the P388 NCI screen in second assay.; type: organism-based; conditions: in vivo
[3] = tested on: Tubulin (Rattus norvegicus); conditions: Brain, at 25 µM
P388 [4] = test: Potency against lymphocytic leukemia P388 screen in mice; inactive; type: functional, cell-based; conditions: Mus musculus
Mus musculus [5] = test: Toxicity found after a single intramuscular injection in mice; conditions: in vivo, im
P388 [6] = test: Potency against lymphocytic leukemia P388 screen in mice.; type: functional, Mus musculus

Molecule CCOC(=O)N[C@H]1CCc2cc(OC)c(OC)c(OC)c2-c2ccc(OC)c(=O)cc21 has a Toxicity (Mus musculus [1]) of 11.7 µM/kg and a Toxicity (Mus musculus [2]) of 1.5 µM/kg.

Work on COc1c(Oc2nnnn2-c2ccccc2)cc2c(c1OC)-c1ccc(OC)c(=O)cc1[C@@H](NC(C)=O)CC2 yielded a Binding [3] of 27%.

In the case of COc1cc2c(c3c1OCO3)-c1ccc(OC)c(=O)cc1[C@@H](NC(C)=O)CC2, the Potency (P388 [4]) is reported as “inactive”, the Toxicity (Mus musculus [1]) is reported as 104 µM/kg and the Toxicity (Mus musculus [5]) is reported as over 167 µM/kg.

With COc1cc2c(c(O)c1O)-c1ccc(OC)c(=O)cc1[C@@H](NC(C)=O)CC2 the Potency (P388 [4]) was “inactive”, the Toxicity (Mus musculus [1]) was over 320 µM/kg and the Toxicity (Mus musculus [5]) was over 450 µM/kg.

COc1cc2c(c(OC)c1OC)-c1ccc(OC)c(=O)cc1[C@@H](N(C)C(=O)CO)CC2 was tested, and the Toxicity (Mus musculus [1]) was 2.9 µM/kg, the Toxicity (Mus musculus [5]) was 14.5 µM/kg and the Binding [3] was 99%. For the same molecule, the Potency (P388 [6]) was 0.6 µM/kg.

CCC(=O)N[C@H]1CCc2cc(OC)c(OC)c(OC)c2-c2ccc(OC)c(=O)cc21 showed a Toxicity (Mus musculus [5]) of 8.2 µM/kg.

With COc1cc(/C=C/C(=O)N[C@H]2CCc3cc(OC)c(OC)c(OC)c3-c3ccc(OC)c(=O)cc32)cc(OC)c1O the Binding [3] was 69%.

Molecule COc1cc2c(c(OC)c1OC)-c1ccc(OC)c(=O)cc1[C@@H](NC(=O)C(C)(C)C)CC2 has a Toxicity (Mus musculus [5]) of 9.3 µM/kg.

CCOCC(=O)N[C@H]1CCc2cc(OC)c(OC)c(OC)c2-c2ccc(OC)c(=O)cc21 gave a Toxicity (Mus musculus [1]) of 2.8 µM/kg, a Toxicity (Mus musculus [5]) of 9 µM/kg and a Potency (P388 [6]) of 0.4 µM/kg.

CCCC(=O)N[C@H]1CCc2cc(OC)c(OC)c(OC)c2-c2ccc(OC)c(=O)cc21 was tested, and the Toxicity (Mus musculus [1]) was 5.8 µM/kg, the Toxicity (Mus musculus [5]) was 5.8 µM/kg and the Potency (P388 [6]) was 0.7 µM/kg.

For COc1cc2c(c(OC)c1OC)-c1ccc(OC)c(=O)cc1[C@@H](NC(=O)CO)CC2 [COLCHIFOLINE], the Toxicity (Mus musculus [1]) was 3 µM/kg, the Toxicity (Mus musculus [5]) was 3.9 µM/kg and the Potency (P388 [6]) was 0.7 µM/kg.

For COc1cc2c(c(OC)c1OC)-c1ccc(OC)c(=O)cc1[C@@H](NC(=O)/C=C(\C)C=C=C(C)/C=C/C1=C(C)CCCC1(C)C)CC2, the Binding [3] was 41%.

COc1c(O)c(O)cc2c1-c1ccc(OC)c(=O)cc1[C@@H](NC(C)=O)CC2 was tested, and the Toxicity (Mus musculus [1]) was 54 µM/kg, the Toxicity (Mus musculus [5]) was over 450 µM/kg and the Potency (P388 [6]) was 20 µM/kg.

With COc1cc2c(c(OC)c1OC)-c1cccc(=O)cc1[C@@H](NC(C)=O)CC2 [CHOLCHICIDE] the Toxicity (Mus musculus [1]) was 54.2 µM/kg, the Toxicity (Mus musculus [5]) was 168.9 µM/kg and the Potency (P388 [6]) was 9.2 µM/kg.

For COc1c2c(cc3c1-c1ccc(OC)c(=O)cc1[C@@H](NC(C)=O)CC3)OCO2, the Toxicity (Mus musculus [1]) was 39.1 µM/kg, the Toxicity (Mus musculus [5]) was 9.7 µM/kg and the Potency (P388 [6]) was under 10 µM/kg.

COc1cc2c(c(OC)c1OC)-c1ccc(OC)c(=O)cc1[C@@H](NC(C)=O)CC2 [COLCHICINE] gave a Toxicity (Mus musculus [1]) of 2.5 µM/kg, a Toxicity (Mus musculus [5]) of 3 µM/kg and a Potency (P388 [6]) of 0.4 µM/kg.

Molecule COc1cc(C(=O)N[C@H]2CCc3cc(OC)c(OC)c(OC)c3-c3ccc(OC)c(=O)cc32)cc(OC)c1OC has a Toxicity (Mus musculus [1]) of 72.6 µM/kg, a Toxicity (Mus musculus [5]) of over 180 µM/kg and a Potency (P388 [6]) of 14 µM/kg.

Work on COc1cc2c(c(OC)c1Oc1nnnn1-c1ccccc1)-c1ccc(OC)c(=O)cc1[C@@H](NC(C)=O)CC2 yielded a Binding [3] of 52%.

For CCC(=O)N[C@H]1CCc2cc(OC)c(OC)c(OC)c2-c2ccc(=O)c(OC)cc21, the Binding [3] was 10%.

COc1cc2c(c(OC)c1OC)-c1ccc(=O)c(OC)cc1[C@@H](NC(=O)CO)CC2 was tested, and the Binding [3] was 0%.

Molecule COc1cc2c(c(OC)c1OC)-c1ccc(OC)c(=O)cc1[C@@H](NC(=O)c1ccccc1)CC2 has a Toxicity (Mus musculus [1]) of 4.3 µM/kg, a Toxicity (Mus musculus [5]) of 60.5 µM/kg and a Potency (P388 [6]) of 1 µM/kg.

COc1cc2c(c(OC)c1O)-c1ccc(OC)c(=O)cc1[C@@H](NC(=O)C(F)(F)F)CC2 was tested, and the Toxicity (Mus musculus [1]) was 23.5 µM/kg, the Toxicity (Mus musculus [5]) was 32.5 µM/kg and the Binding [3] was 96%. The Potency (P388 [6]) was 3.8 µM/kg.

In the case of COc1cc2c(c(OC)c1OC)-c1ccc(OC)c(=O)cc1[C@@H](NC(=O)COc1ccccc1)CC2, the Toxicity (Mus musculus [1]) is reported as 5.1 µM/kg, the Toxicity (Mus musculus [5]) is reported as 61.3 µM/kg and the Potency (P388 [6]) is reported as 1.3 µM/kg.
